pIC50: −log10 of the molar value. Several values for one entry are separate records, joined by “and”; a condition that tells them apart may be missing. Equal entries are not always repeated. Each block holds one molecule with its values, some of them ahead of it.
System: Hs578T complex spheroid growth, percent test/control
Experiment: Anticancer human tumor Hs578T cell line growth inhibition [AhR];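 note: luminescent viability signal as a proxy for spheroid growth; spheroids exposed to agents for one week after three days of growth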
Conditions: for viability, T/C: stronger effect = lower value
Text: Multicellular complex tumor spheroid response to aryl hydrocarbon receptor antagonists in combination with a variety of drugs and investigational agents in selected tumor cell lines
The current study was undertaken to assess response to aryl hydrocarbon receptor antagonists in combination with standard-of-care drugs and investigational agents in solid tumor complex spheroid models. Complex spheroids include a stromal component modeled by human endothelial cells (HUVEC) and fibroblasts modeled by human mesenchymal stem cells (MSCs). The concentration ranges selected for each drug and investigational agent were based upon clinically achievable concentrations if the clinical Cmax of the agent was known.
Compounds. The drugs and investigational agents: BAY 2416964 (NSC825713), GNF351 (NSC835774), CH-223191 (NSC835775), CPI-455 (NSC825282), aza-TdCyd (NSC777586), decitabine (NSC127716), belinostat (NSC758774), entinostat (NSC756642), pevonedistat (NSC761192), tazemetostat (NSC777109), talazoparib (NSC765396), olaparib (NSC753686), selinexor (NSC780203), nedisertib (M3814, NSC802822), bortezomib (NSC756655), venetoclax (NSC766270), doxorubicin (NSC123127), elimusertib (BAY189344, NSC800525), ceralasertib (AZD6738, NSC777638), TAK-243 (NSC785004), alisertib (NSC759677), etoposide (NSC141540), topotecan (NSC609699), eribulin (NSC707389), gemcitabine (NSC613327), carboplatin (NSC241240), cisplatin (NSC119875), and SN-38 (NSC673596) were obtained from the National Cancer Institute (NCI) Developmental Therapeutics Program Chemical Repository (32). The FDA-approved anticancer drug set is available from the Developmental Therapeutics Program at https://dtp.cancer.gov/organization/dscb/obtaining/available plates.htm. […] The stock solutions were prepared in dimethyl sulfoxide (DMSO, Sigma-Aldrich, St. Louis, MO, cat. D2650), except for the platinum compounds which were prepared in saline (Quality Biological, Gaithersburg, MD, cat. 114-055-101), at 800-fold the tested concentration and stored at -70 degrees C prior to their use. All drugs and investigational agents were tested over a range starting from a high concentration at or near the clinical Cmax and decreasing in half-log increments. If the clinical Cmax for an agent had not been determined, the highest concentration tested was 10 microM (Table 1).
Cell Culture. All cells were maintained in an incubator at 37 degrees C and 5% CO2 with 95% humidity. The PDC lines were cultured according to standard operating procedures established by the NCI PDMR (https://pdmr.cancer.gov). Briefly, all PDCs were thawed and cultured in Matrigel-coated flasks prepared with a working solution of 1X Ham's F-12 nutrient mix, without supplementation (Invitrogen, Waltham, MA, cat. 11765054), 100 U/mL penicillin-streptomycin (Invitrogen, cat. 15140122), and 2.5% Matrigel (Corning Inc., Corning, NY, cat. 354248) for the first three passages. All PDCs were cultured in complete DMEM/F-12 media containing advanced DMEM/F-12 (Invitrogen, cat. 12634028), 4.9% defined fetal bovine serum, heat inactivated (HyClone Laboratories Inc., Logan, UT, cat. SH30070.03HI), 389 ng/mL hydrocortisone (Sigma-Aldrich, cat. H4001), 9.7 ng/mL human EGF recombinant protein (Invitrogen, cat. PHG0313), 23.4 microg/mL adenine (Sigma-Aldrich, cat. A2786), 97.3 U/mL penicillin-streptomycin (Invitrogen, cat. 15140122), 1.9 mM L-glutamine (Invitrogen, cat. 25030081), and 9.7 microM Y-27632 dihydrochloride (Tocris Bioscience, Bristol, United Kingdom, cat. 1254). The PDCs were cultured in complete DMEM/F12 media without 10 microM Y-27632 dihydrochloride for at least two passages prior to the screen. The established cell lines NCI-H1341 and […] were cultured in DMEM/F-12, HEPES (Invitrogen, cat. 11330032), 5% defined fetal bovine serum (HyClone Laboratories Inc., cat. SH30070.03), ITS premix universal culture supplement [insulin (5 microg/mL), transferrin (5 microg/mL), and selenious acid (5 ng/mL)] […]

[1] = curve of first compound, second compound 0.1 µM
[2] = curve of first compound, second compound 0.316 µM
[3] = curve of first compound, second compound 1 µM
[4] = curve of first compound, second compound 3.16 µM
[5] = curve of first compound, second compound 10 µM
[6] = second compound 0.1 µM, first compound 0.0316 µM
[7] = second compound 0.1 µM, first compound 0.1 µM
[8] = second compound 0.316 µM, first compound 0.0316 µM
[9] = second compound 0.316 µM, first compound 0.1 µM
[10] = second compound 1 µM, first compound 0.0316 µM
[11] = second compound 1 µM, first compound 0.1 µM
[12] = second compound 3.16 µM, first compound 0.0316 µM
[13] = second compound 3.16 µM, first compound 0.1 µM
[14] = second compound 10 µM, first compound 0.0316 µM
[15] = second compound 10 µM, first compound 0.1 µM
[16] = second compound 0.1 µM, first compound 0.316 µM
[17] = second compound 0.1 µM, first compound 1 µM
[18] = second compound 0.1 µM, first compound 3.16 µM
[19] = second compound 0.1 µM, first compound 10 µM
[20] = second compound 0.316 µM, first compound 0.316 µM
[21] = second compound 0.316 µM, first compound 1 µM
[22] = second compound 0.316 µM, first compound 3.16 µM
[23] = second compound 0.316 µM, first compound 10 µM
[24] = second compound 1 µM, first compound 0.316 µM
[25] = second compound 1 µM, first compound 1 µM
[26] = second compound 1 µM, first compound 3.16 µM
[27] = second compound 1 µM, first compound 10 µM
[28] = second compound 3.16 µM, first compound 0.316 µM
[29] = second compound 3.16 µM, first compound 1 µM
[30] = second compound 3.16 µM, first compound 3.16 µM
[31] = second compound 3.16 µM, first compound 10 µM
[32] = second compound 10 µM, first compound 0.316 µM
[33] = second compound 10 µM, first compound 1 µM
[34] = second compound 10 µM, first compound 3.16 µM
[35] = second compound 10 µM, first compound 10 µM

pIC50 [1]: < 7.00
pIC50 [2]: < 7.00
pIC50 [3]: < 7.00
pIC50 [4]: < 7.00
pIC50 [5]: < 7.00
Structure (SMILES): Cn1ncnc1C1c2n[nH]c(=O)c3cc(F)cc(c23)NC1c1ccc(F)cc1 (stereo unspecified) + Cc1ccccc1N=Nc1ccc(NC(=O)c2ccnn2C)c(C)c1
viability, T/C (second compound 0.1 µM, first compound 0.000316 µM): 109%
viability, T/C (second compound 0.1 µM, first compound 0.001 µM): 104%
viability, T/C (second compound 0.1 µM, first compound 0.00316 µM): 105%
viability, T/C (second compound 0.1 µM, first compound 0.01 µM): 105%
viability, T/C [6]: 100%
viability, T/C [7]: 99.5%
viability, T/C (second compound 0.316 µM, first compound 0.000316 µM): 121%
viability, T/C (second compound 0.316 µM, first compound 0.001 µM): 117%
viability, T/C (second compound 0.316 µM, first compound 0.00316 µM): 109%
viability, T/C (second compound 0.316 µM, first compound 0.01 µM): 105%
viability, T/C [8]: 106%
viability, T/C [9]: 107%
viability, T/C (second compound 1 µM, first compound 0.000316 µM): 108%
viability, T/C (second compound 1 µM, first compound 0.001 µM): 105%
viability, T/C (second compound 1 µM, first compound 0.00316 µM): 107%
viability, T/C (second compound 1 µM, first compound 0.01 µM): 104%
viability, T/C [10]: 107%
viability, T/C [11]: 99.7%
viability, T/C (second compound 3.16 µM, first compound 0.000316 µM): 94.4%
viability, T/C (second compound 3.16 µM, first compound 0.001 µM): 103%
viability, T/C (second compound 3.16 µM, first compound 0.00316 µM): 101%
viability, T/C (second compound 3.16 µM, first compound 0.01 µM): 93.9%
viability, T/C [12]: 99.9%
viability, T/C [13]: 99%
viability, T/C (second compound 10 µM, first compound 0.000316 µM): 73.7%
viability, T/C (second compound 10 µM, first compound 0.001 µM): 71.2%
viability, T/C (second compound 10 µM, first compound 0.00316 µM): 76.7%
viability, T/C (second compound 10 µM, first compound 0.01 µM): 81.7%
viability, T/C [14]: 69%
viability, T/C [15]: 72.2%

pIC50 (curve of compound): < 5.00
Structure (SMILES): CC1(C)CCC(CN2CCN(c3ccc(C(=O)NS(=O)(=O)c4ccc(NCC5CCOCC5)c([N+](=O)[O-])c4)c(Oc4cnc5[nH]ccc5c4)c3)CC2)=C(c2ccc(Cl)cc2)C1
viability, T/C (compound 0.0316 µM): 103% and 111% and 99.9%
viability, T/C (compound 0.1 µM): 110% and 109% and 97.8%
viability, T/C (compound 0.316 µM): 112% and 104% and 99.2%
viability, T/C (compound 1 µM): 91% and 103% and 92.9%
viability, T/C (compound 3.16 µM): 101% and 97.7% and 82.6%
viability, T/C (compound 10 µM): 84% and 62.3% and 78.2%

pIC50 [1]: < 5.00
pIC50 [2]: < 5.00
pIC50 [3]: < 5.00
pIC50 [4]: < 5.00
pIC50 [5]: > 7.50
Structure (SMILES): COc1cc(Nc2ncc3c(n2)-c2ccc(Cl)cc2C(c2c(F)cccc2OC)=NC3)ccc1C(=O)O + Cc1cncc(-c2nc(NCCc3c[nH]c4ccccc34)c3ncn(C(C)C)c3n2)c1
viability, T/C [6]: 91.4%
viability, T/C [7]: 94.7%
viability, T/C [16]: 99.6%
viability, T/C [17]: 101%
viability, T/C [18]: 85.6%
viability, T/C [19]: 65.1%
viability, T/C [8]: 93.5%
viability, T/C [9]: 93.2%
viability, T/C [20]: 107%
viability, T/C [21]: 90.5%
viability, T/C [22]: 88.2%
viability, T/C [23]: 66.9%
viability, T/C [10]: 98.5%
viability, T/C [11]: 81.7%
viability, T/C [24]: 104%
viability, T/C [25]: 99.2%
viability, T/C [26]: 86.7%
viability, T/C [27]: 62.5%
viability, T/C [12]: 55.6%
viability, T/C [13]: 62.4%
viability, T/C [28]: 70.1%
viability, T/C [29]: 59.4%
viability, T/C [30]: 61.1%
viability, T/C [31]: 53.3%
viability, T/C [14]: 6.12%
viability, T/C [15]: 5.86%
viability, T/C [32]: 6.53%
viability, T/C [33]: 6.24%
viability, T/C [34]: 8.49%
viability, T/C [35]: 12.8%

Second part, the molecule before the results:

Structure (SMILES): COc1cccc2c1C(=O)c1c(O)c3c(c(O)c1C2=O)CC(O)(C(=O)CO)CC3OC1CC(N)C(O)C(C)O1 (stereo unspecified)
viability, T/C (compound 0.0316 µM): 94.7% and 85.6% and 84.9%
viability, T/C (compound 0.1 µM): 76.8% and 79.4% and 75.8%
viability, T/C (compound 0.316 µM): 64.8% and 54.3% and 58.2%
viability, T/C (compound 1 µM): 22.9% and 18.6% and 23.3%
viability, T/C (compound 3.16 µM): 3.73% and 2.18% and 2.52%
viability, T/C (compound 10 µM): 3.36% and 2.24% and 3.77%
pIC50 (curve of compound): 6.35 and 6.44 and 6.39

Structure (SMILES): O=C(c1cc(Cc2n[nH]c(=O)c3ccccc23)ccc1F)N1CCN(C(=O)C2CC2)CC1 + CC(CO)NC(=O)c1cc(-c2ccc(Cl)cc2)nn(-c2cnn(C)c2)c1=O
pIC50 [1]: < 5.00
pIC50 [2]: < 5.00
pIC50 [3]: < 5.00
pIC50 [4]: < 5.00
pIC50 [5]: < 5.00
viability, T/C [6]: 113%
viability, T/C [7]: 112%
viability, T/C [16]: 109%
viability, T/C [17]: 104%
viability, T/C [18]: 96.3%
viability, T/C [19]: 93.5%
viability, T/C [8]: 110%
viability, T/C [9]: 115%
viability, T/C [20]: 114%
viability, T/C [21]: 104%
viability, T/C [22]: 98.9%
viability, T/C [23]: 89.7%
viability, T/C [10]: 106%
viability, T/C [11]: 113%
viability, T/C [24]: 121%
viability, T/C [25]: 108%
viability, T/C [26]: 110%
viability, T/C [27]: 94.7%
viability, T/C [12]: 122%
viability, T/C [13]: 124%
viability, T/C [28]: 126%
viability, T/C [29]: 105%
viability, T/C [30]: 106%
viability, T/C [31]: 88.5%
viability, T/C [14]: 96.2%
viability, T/C [15]: 107%
viability, T/C [32]: 112%
viability, T/C [33]: 101%
viability, T/C [34]: 99.9%
viability, T/C [35]: 86.9%

Structure (SMILES): O=C(c1cc(Cc2n[nH]c(=O)c3ccccc23)ccc1F)N1CCN(C(=O)C2CC2)CC1
viability, T/C (compound 0.0316 µM): 104% and 103% and 102%
viability, T/C (compound 0.1 µM): 108% and 102% and 106%
viability, T/C (compound 0.316 µM): 109% and 98.8% and 95%
viability, T/C (compound 1 µM): 104% and 103% and 88.4%
viability, T/C (compound 3.16 µM): 90.8% and 91.2% and 88.4%
viability, T/C (compound 10 µM): 82.5% and 75.1% and 82.1%
pIC50 (curve of compound): < 5.00
